Test results from paper doi:10.1101/2022.12.28.522074v1, “Redesigning methionyl-tRNA synthetase for β-methionine activity with adaptive landscape flattening and experiments” (biorxiv, 2022).
Numbering of substitutions follows the chain as printed. Read-outs that look alike come from different tables or passages of the source.

Key:
Assay in all cases: intrinsic fluorescence titration at equilibrium
Assay type in all cases: binding
[1] = target: T1, MetRS M547 (His-tagged monomeric E. coli MetRS) (Escherichia coli, UniProt P00959, I298C/L14S)
T1 construct: gene metG; M547: C-terminally truncated monomeric fragment (about 547 residues), His-tagged, pET15blpa, expressed in E. coli BLR(DE3)
T1 sequence (P00959 2-548 L14S/I298C): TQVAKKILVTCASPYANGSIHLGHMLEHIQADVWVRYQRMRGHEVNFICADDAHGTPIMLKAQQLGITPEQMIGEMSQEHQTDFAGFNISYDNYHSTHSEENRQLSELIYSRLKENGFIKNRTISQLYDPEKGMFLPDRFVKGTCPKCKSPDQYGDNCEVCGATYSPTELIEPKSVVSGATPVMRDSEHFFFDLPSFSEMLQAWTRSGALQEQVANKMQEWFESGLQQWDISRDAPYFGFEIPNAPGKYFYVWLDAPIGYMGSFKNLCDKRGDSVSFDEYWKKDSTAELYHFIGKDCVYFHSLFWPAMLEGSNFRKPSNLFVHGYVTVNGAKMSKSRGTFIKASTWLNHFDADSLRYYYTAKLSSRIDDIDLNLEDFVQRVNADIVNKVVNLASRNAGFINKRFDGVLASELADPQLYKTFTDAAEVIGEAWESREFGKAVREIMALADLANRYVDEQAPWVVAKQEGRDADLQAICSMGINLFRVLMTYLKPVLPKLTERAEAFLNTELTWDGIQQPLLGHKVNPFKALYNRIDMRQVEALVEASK
Source text: (§1) intrinsic fluorescence titration at equilibrium on MetRS M547 (His-tagged monomeric E. coli MetRS)

[2] = target: T2, MetRS M547 (His-tagged monomeric E. coli MetRS) (Escherichia coli, UniProt P00959)
T2 construct: gene metG; M547: C-terminally truncated monomeric fragment (about 547 residues), His-tagged, pET15blpa, expressed in E. coli BLR(DE3)
T2 sequence (P00959 2-548): T1 sequence (P00959 2-548 L14S/I298C) with S13L, C297I
Source text: as §1

[3] = target: T3, MetRS M547 (His-tagged monomeric E. coli MetRS) (Escherichia coli, UniProt P00959, I298C/L14C)
T3 construct: gene metG; M547: C-terminally truncated monomeric fragment (about 547 residues), His-tagged, pET15blpa, expressed in E. coli BLR(DE3)
T3 sequence (P00959 2-548 L14C/I298C): T1 sequence (P00959 2-548 L14S/I298C) with S13C
Source text: as §1

[4] = target: T4, MetRS M547 (His-tagged monomeric E. coli MetRS) (Escherichia coli, UniProt P00959, I298C/L14M)
T4 construct: gene metG; M547: C-terminally truncated monomeric fragment (about 547 residues), His-tagged, pET15blpa, expressed in E. coli BLR(DE3)
T4 sequence (P00959 2-548 L14M/I298C): T1 sequence (P00959 2-548 L14S/I298C) with S13M
Source text: as §1

[5] = target: T5, MetRS M547 (His-tagged monomeric E. coli MetRS) (Escherichia coli, UniProt P00959, I298C)
T5 construct: gene metG; M547: C-terminally truncated monomeric fragment (about 547 residues), His-tagged, pET15blpa, expressed in E. coli BLR(DE3)
T5 sequence (P00959 2-548 I298C): T1 sequence (P00959 2-548 L14S/I298C) with S13L
Source text: as §1

## CSCC[C@H](N)C(=O)O [α-Met]
[1]; read-out: Kd(α-Met)
  Kd: 170 µM
[2]; read-out: Kd(α-Met)
  Kd: 50 µM
[3]; read-out: Kd(α-Met)
  Kd: 170 µM
[4]; read-out: Kd(α-Met)
  Kd: 160 µM
[5]; read-out: Kd(α-Met)
  Kd: 190 µM

## CSCC[C@H](N)CC(=O)O [β-Met]
[1]; read-out: Kd(β-Met)
  Kd: 1000 µM
[2]; read-out: Kd(β-Met)
  Kd: 1200 µM
[3]; read-out: Kd(β-Met)
  Kd: 900 µM
[4]; read-out: Kd(β-Met)
  Kd: 900 µM
[5]; read-out: Kd(β-Met)
  Kd: 900 µM
